The assay concerns the target rPc-FPS (Pc-FPS, recombinant farnesyl diphosphate synthase of Poria cocos) (Wolfiporia cocos, UniProt K7DW87). Kind of assay: GC of farnesol after acid phosphatase hydrolysis of product FPP. The format is biochemical. The conditions noted are these: 2 mM MgCl2, 5 mM DTT, 50 mM MOPS pH 7.5, 30 °C, 3 h.

Sequence of rPc-FPS (Pc-FPS, recombinant farnesyl diphosphate synthase of Poria cocos) (K7DW87 entry or part of it): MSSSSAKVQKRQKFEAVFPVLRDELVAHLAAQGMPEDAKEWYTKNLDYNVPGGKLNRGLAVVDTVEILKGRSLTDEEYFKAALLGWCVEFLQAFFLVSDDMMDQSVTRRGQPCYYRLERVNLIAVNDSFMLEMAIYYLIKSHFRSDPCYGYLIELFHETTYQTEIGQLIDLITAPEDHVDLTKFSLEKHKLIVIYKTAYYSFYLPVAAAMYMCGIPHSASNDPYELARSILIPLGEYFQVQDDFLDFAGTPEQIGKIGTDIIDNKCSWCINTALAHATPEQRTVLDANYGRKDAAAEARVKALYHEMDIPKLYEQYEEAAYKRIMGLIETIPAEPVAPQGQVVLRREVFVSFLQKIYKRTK

As for `CC(C)=CCC/C(C)=C/COP(=O)(O)OP(=O)(O)O` [GPP], the “GC of farnesol after acid phosphatase hydrolysis of product FPP” value (50 uM GPP, co-substrate 50 uM IPP) is given as “the purified rPc-FPS was used to catalyze GPP with IPP to produce FPP”.

Consider `C=C(C)CCOP(=O)(O)OP(=O)(O)O` [IPP], for which the “GC of farnesol after acid phosphatase hydrolysis of product FPP” value (50 uM IPP, co-substrate 50 uM GPP) was “rPc-FPS could catalyze the formation of FPP from GPP and IPP”.

Source of the values: PMC4284702, “Cloning and Characterization of Farnesyl Diphosphate Synthase Gene Involved in Triterpenoids Biosynthesis from Poria cocos” (International Journal of Molecular Sciences, 2014).
